45 compounds from US20080312271A1, “AZABENZIMIDAZOLYL COMPOUNDS” (Pfizer Inc., priority 2006, published 2008) can be followed below.

By EC50 is commonly meant the concentration that produces a half-maximal response.

The target in the first assay is T1, mGluR2 receptor (metabotropic glutamate receptor 2) (Homo sapiens, UniProt Q14416).
T1 construct: expressed in transfected cells
T1 sequence (Q14416 19-872, species assumed): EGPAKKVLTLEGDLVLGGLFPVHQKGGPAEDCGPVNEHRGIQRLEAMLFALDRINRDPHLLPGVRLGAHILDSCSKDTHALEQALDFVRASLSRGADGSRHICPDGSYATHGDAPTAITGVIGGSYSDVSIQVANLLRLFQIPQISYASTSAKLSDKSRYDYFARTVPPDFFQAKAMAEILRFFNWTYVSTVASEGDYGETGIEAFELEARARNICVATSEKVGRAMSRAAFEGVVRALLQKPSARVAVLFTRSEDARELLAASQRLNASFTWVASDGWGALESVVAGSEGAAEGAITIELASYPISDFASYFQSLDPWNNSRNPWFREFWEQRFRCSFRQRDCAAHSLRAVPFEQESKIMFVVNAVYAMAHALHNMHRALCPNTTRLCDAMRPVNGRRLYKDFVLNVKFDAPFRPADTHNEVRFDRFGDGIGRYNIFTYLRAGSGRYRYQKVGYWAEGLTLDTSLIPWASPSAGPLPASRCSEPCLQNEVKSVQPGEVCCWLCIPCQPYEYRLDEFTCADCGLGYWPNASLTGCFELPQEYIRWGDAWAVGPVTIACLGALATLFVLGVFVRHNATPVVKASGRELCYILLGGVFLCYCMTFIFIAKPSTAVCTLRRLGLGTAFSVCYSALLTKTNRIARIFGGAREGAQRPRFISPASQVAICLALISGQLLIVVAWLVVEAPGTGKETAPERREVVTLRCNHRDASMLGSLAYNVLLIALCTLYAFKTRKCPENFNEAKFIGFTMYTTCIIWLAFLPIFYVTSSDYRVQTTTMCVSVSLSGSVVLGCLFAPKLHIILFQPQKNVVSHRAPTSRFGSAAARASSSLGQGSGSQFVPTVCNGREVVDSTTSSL
Briefly: mGluR2 Potentiator Screen, FLIPR, EC10-EC20 glutamate challenge. In kind it is cell-based.
Conditions: not given
The protocol:
Procedure for mGluR2 Potentiator Screen NLB methods EC10-EC20 Challenge Cell Culture and Plating:
Cells used for this screen are HEK cells stably transfected with the mGluR2 receptor (metabotropic glutamate receptor 2) and the Gα15 G protein. Clones were identified by functional activity (FLIPR). Cells are grown in growth media containing: DMEM High Glucose with Glutamine and Na Pyruvate (GIBCO), 10% (v/v) Heat inactivate FBS (GIBCO), G418 500 ug/ml (from 50 mg/ml stock) (GIBCO) and Blasticidin 3 ug/ml (from 5 mg/ml stock made in H2O) (Invitrogen).
2 days before the assay cell are trypsinized with 0.25% trysin/EDTA (GIBCO), spun down at 1000 rpm for 5 minutes, resuspended in growth media and plated on polystyrene 384 well black wall 1 clear bottom poly-D-lysine coated plates at a density of approximately 18,000 cells/well in a volume of 50 μL per well. One day before the assay the growth media is removed from the plates by flicking, and replaced with media containing DMEM High Glucose without Glutamine and Na Pyruvate (GIBCO) and 10% (v/v) dialyzed FBS (GIBCO). The reason for the removal of glutamine the day before the assay is to minimize the amount of glutamate that will be present during the assay, as endogenous glutarnate released from the cells can reduce the fluorescent response and interfere with the FLIPR screen.
FLIPR Methods and Data Analysis:
On the day of the assay, the FLIPR assay is performed using the following methods.
The pH is adjusted to 7.4 with 1 M NaOH. Prepare a 2 mM (approx.) stock solution of Fluo-4,am (Molecular Probes) dye in DMSO-22 μl DMSO per 50 ug vial (440 μL per 1 mg vial). Make a 1 mM (approx.) flou-4, PA working solution per vial by adding 22 μl of 20% pluronic acid (PA), (Molecular Probes) in DMSO to each 50 ug vial (440 μL per 1 mg vial). Prepare a 250 mM Probenecid (Sigma) stock solution by dissolving 0.71 g into 5 ml 1N NaOH and 5 ml assay buffer (for each liter of assay wash buffer)L Make 4 uM (approx.) dye incubation media by adding […] per 11 ml DMEM high glucose without glutamine (220 ml per 1 mg vial). Add 110 μL probenecid stock per 11 ml (2.5 mM final [concentration]). To the dye media add 3 units/ml of glutamic-pyruvic transaminase (GPT, Sigma) and 3 mM Na Pyruvate. The assay has worked with dye concentrations from 2 uM to 8 uM dye as well. To the assay buffer from drug preparation, add 1.83 mls DMSO and 400 μL 15.8% P104 (from New Leads biology) per liter for final concentrations of 0.18% DMSO and 0.006% P104. To the assay buffer for cell washing, add probenecid in the same manner and concentration that was used for the dye media.
Remove growth media from cell plates by flicking. Add 50 μl/well dye solution. Incubate 1 hour at 37° C. and 5% CO2. Remove dye solution and wash 3 times with assay buffer+probenecid (100 μl probenecid stock per 10 ml buffer), leaving 30 μL/well assay buffer. Wait at least 10-15 minutes. Compounds and agonist challenge additions are performed with the FLIPR. The 1st addition is for test compounds, which are added as 15 μL of 4×[concentration] of potentiator. The second 2nd addition is 15 μL of 4×[concentration] of agonist or challenge. This achieves 1× concentration of all compounds only after 2nd addition. The 1st and 2nd additions are performed separately using the FLIPR, which give 2 different data files. Compounds are pretreated at least 30 minutes before agonist addition,
Results are analyzed by dividing the peak fluorescent value of the FLIPR response by the […] to achieve a ratio response. The ratios are then analyzed by curve fitting programs. […] Maximum values for dose response curves (forced fitting) are derived from standards on the plate.
Compound Preparation and Glutamate Challenge:
Compounds are delivered as 10 mM DMSO stocks or as powders, Powders are solubilized in DMSO at 10 mM (as solubility allows). Compounds are sonicated in a heated water bath (35-40° C.) for at least 20 minutes.
Consider `Cn1c(CN2CCC(c3ccccc3C(F)(F)F)CC2)nc2ncccc21` [compound 53], for which the EC50 turned out to be 105 nM.

With `CC1CN(Cc2nc3ncccc3n2C)CCC1c1ccccc1F` (centres unmarked) [compound 72], the half-maximal effective concentration (EC50) is 301 nM.

Consider `COc1cc(C(F)(F)F)ccc1[C@H]1CCN(Cc2nc3ncccc3n2C)C[C@H]1C` (single isomer, unassigned) [compound 131], for which the concentration for a half-maximal effect (EC50) was found to be 21.9 nM.

On to `CC(C)Oc1ccc([C@H]2CCN(Cc3nc4ncccc4n3C)C[C@H]2C)c(F)c1` (single isomer, unassigned) [compound 218], for which the EC50 was greater than 909 nM.

As for `Cc1cccc(C2CCN(Cc3nc4ncccc4n3C)CC2)c1` [compound 62], the EC50 worked out at 617 nM.

`Cn1c(CN2CCC(c3cc(C(F)(F)F)ccc3F)CC2)nc2cnccc21` [compound 57]: the EC50 was found to be 448 nM.

`C[C@@H]1CN(Cc2nc3nccc4c3n2CCC4)CC[C@@H]1c1ccc(F)cc1F` (relative stereo) [Example 127, 2-{[Cis-4-(2,4-difluorophenyl)-3-methylpiperidin-1-yl]methyl}-5,6-dihydro-4H-imidazo[4,5,1-ij]-1,7-naphthyridine]: the half-maximal effective concentration (EC50) was 47.1 nM.

For the compound `C[C@@H]1CN(Cc2nc3ncccc3n2C)CC[C@@H]1c1ccc(F)c(F)c1` (relative stereo) [compound 121], the EC50 stood at 753 nM.

Regarding `C[C@@H]1CN(Cc2nc3ncccc3n2C)CC[C@@H]1c1ccc(F)cc1C(F)(F)F` (relative stereo) [compound 204], the EC50 amounted to 28.3 nM.

For `Cn1c(CN2CCC(c3ccc(F)cc3)CC2)nc2ncccc21` [compound 67], the EC50 was 2360 nM.

As for `Cc1cc(F)ccc1[C@H]1CCN(Cc2nc3cnccc3n2C)C[C@H]1C` (relative stereo) [compound 205], the EC50 turned out to be 243 nM.

On to `Cn1c(CN2CCC(c3cc(C(F)(F)F)cc(C(F)(F)F)c3)CC2)nc2ncccc21` [compound 65], for which the EC50 amounted to 144 nM.

On to `CC(C)Oc1ccc([C@H]2CCN(Cc3nc4cnccc4n3C)C[C@H]2C)c(C(F)(F)F)c1` (relative stereo) [compound 216], for which the EC50 came out at 287 nM.

Take `C[C@@H]1CN(Cc2nc3ncccc3n2C)CC[C@@H]1c1ccc(Cl)cc1Cl` (single isomer, unassigned) [compound 185]: the EC50 is 64.2 nM.

Regarding `COc1ccc(Cl)cc1C1CCN(Cc2nc3ncccc3n2C)CC1` [compound 43], the concentration giving a half-maximal response (EC50) stood at 203 nM.

For `CCOc1ccc([C@H]2CCN(Cc3nc4cnccc4n3C)C[C@H]2C)cc1F` (relative stereo) [compound 194], the EC50 was greater than 5360 nM.

For `C[C@@H]1CN(Cc2nc3ncccc3n2C)CC[C@@H]1c1ccc(C(F)(F)F)cc1Cl` (single isomer, unassigned) [compound 163], the EC50 stood at 396 nM.

In the case of `Cn1c(CN2CCC(c3ccc(Cl)c(F)c3)CC2)nc2cnccc21` [compound 107], the EC50 was 315 nM.

For `Cn1c(CN2CCC(c3ccc(C(F)(F)F)cc3)C(F)C2)nc2ncccc21` (centres unmarked) [compound 100], the EC50 turned out to be 315 nM.

Turning to `CC(C)Oc1ccc([C@H]2CCN(Cc3nc4cnccc4n3C)C[C@H]2C)c(F)c1` (single isomer, unassigned) [compound 220], the EC50 is greater than 1190 nM.

`CC(C)Oc1ccc([C@H]2CCN(Cc3nc4ncccc4n3C)C[C@H]2C)c(F)c1` (single isomer, unassigned) [compound 217]: the EC50 worked out at 29.8 nM.

In the case of `COc1ccc([C@H]2CCN(Cc3nc4ncccc4n3C)C[C@H]2C)c(C(F)(F)F)c1` (relative stereo) [compound 173], the EC50 came out at 214 nM.

On to `Cn1c(CN2CCC(c3ccccc3C#N)CC2)nc2ncccc21` [compound 77], for which the EC50 is greater than 5700 nM.

As for `Cc1cc(Cl)ccc1[C@H]1CCN(Cc2nc3cnccc3n2C)C[C@H]1C` (relative stereo) [compound 161], the EC50 was 393 nM.

As to `Cc1cc(F)ccc1C1CCN(Cc2nc3ncccc3n2C)CC1` [compound 69], the EC50 stood at 353 nM.

For `C[C@@H]1CN(Cc2nc3ncccc3n2C)CC[C@@H]1c1ccc(C(F)(F)F)cc1F` (single isomer, unassigned) [compound 139], the EC50 was determined as 993 nM.

Turning to `Cn1c(CN2CCC(c3cc(F)ccc3F)CC2)nc2ncccc21` [compound 74], the EC50 is 782 nM.

For the compound `C[C@@H]1CN(Cc2nc3ncccc3n2C)CC[C@@H]1c1ccc(Cl)cc1Cl` (relative stereo) [compound 155], the EC50 is 22.9 nM.

Take `COc1cc(C(F)(F)F)ccc1C1CCN(Cc2nc3nccc4c3n2CCC4)CC1` [Example 135, 2-({4-[2-methoxy-4-(trifluoromethyl)phenyl]-piperidin-1-yl}methyl)-5,6-dihydro-4H-imidazo[4,5,1-ij]-1,7-naphthyridine]: the EC50 was less than 5.43 nM.

As to `C[C@@H]1CN(Cc2nc3cnccc3n2C)CC[C@@H]1c1ccc(C(F)(F)F)cc1C(F)(F)F` (relative stereo) [compound 150], the EC50 turned out to be 207 nM.

With `C[C@@H]1CN(Cc2nc3ncccc3n2C)CC[C@@H]1c1ccc(C(F)(F)F)c(F)c1` (relative stereo) [compound 147], the EC50 is 41.3 nM.

Regarding `CCCOc1ccc(Cl)cc1C1CCN(Cc2nc3ncccc3n2C)CC1` [compound 38], the EC50 came to 392 nM.

In the case of `Cc1cc(OC(F)(F)F)ccc1[C@H]1CCN(Cc2nc3cnccc3n2C)C[C@H]1C` (relative stereo) [compound 165], the EC50 was 514 nM.

With `C[C@@H]1CN(Cc2nc3ncccc3n2C)CC[C@@H]1c1ccc(F)c(C(F)(F)F)c1` (relative stereo) [compound 197], the EC50 amounted to 128 nM.

Take `C[C@@H]1CN(Cc2nc3cnccc3n2C)CC[C@@H]1c1ccc(OC(F)(F)F)cc1F` (single isomer, unassigned) [compound 196]: the EC50 was 56 nM.

Still in this assay, the particulars now being: HEK cells stably transfected with mGluR2 and Gα15; FLIPR (Fluo-4); potentiation of an EC10 to EC20 concentration of glutamate; Table 9.
In the case of `C[C@@H]1CN(Cc2nc3nccc4c3n2CCC4)CC[C@@H]1c1ccc(F)cc1F` (relative stereo) [Example 127, 2-{[Cis-4-(2,4-difluorophenyl)-3-methylpiperidin-1-yl]methyl}-5,6-dihydro-4H-imidazo[4,5,1-ij]-1,7-naphthyridine], the EC50 was 47.1 nM.

Take `COc1cc(C(F)(F)F)ccc1C1CCN(Cc2nc3nccc4c3n2CCC4)CC1` [Example 135, 2-({4-[2-methoxy-4-(trifluoromethyl)phenyl]-piperidin-1-yl}methyl)-5,6-dihydro-4H-imidazo[4,5,1-ij]-1,7-naphthyridine]: the EC50 was less than 5.43 nM.

Still in this assay, the particulars now being: mGluR2 potentiator screen, FLIPR, EC10-EC20 glutamate challenge.
As to `C[C@@H]1CN(Cc2nc3cnccc3n2C)CC[C@@H]1c1ccc(F)cc1C(F)(F)F` (relative stereo) [compound 258], the EC50 is 125 nM.

For the compound `Cn1c(CN2CCC(c3ccc(C(F)(F)F)cc3F)CC2)nc2cnccc21` [compound 236], the EC50 came out at 50.8 nM.

Take `C[C@@H]1CN(Cc2nc3cnccc3n2C)CC[C@@H]1c1ccc(OC(F)(F)F)cc1Cl` (single isomer, unassigned) [compound 254]: the EC50 was found to be 86.6 nM.

Regarding `Cc1cc(C(F)(F)F)ccc1[C@H]1CCN(Cc2nc3ncccc3n2C)C[C@H]1C` (relative stereo) [compound 239], the EC50 is 88 nM.

Regarding `Cc1cc(C2CCN(Cc3nc4ncccc4n3C)CC2)ccc1C(F)(F)F` [compound 277], the EC50 came to 60.5 nM.

Take `COc1cc(C2CCN(Cc3nc4cnccc4n3C)CC2)ccc1C(F)(F)F` [compound 278]: the EC50 worked out at 245 nM.

`C[C@@H]1CN(Cc2nc3ncccc3n2C)CC[C@@H]1c1ccc(F)c(F)c1F` (relative stereo) [compound 249]: the EC50 came to 113 nM.

`C[C@@H]1CN(Cc2nc3ncccc3n2C)CC[C@@H]1c1ccc(F)cc1C(F)(F)F` (single isomer, unassigned) [compound 251]: the EC50 is 21 nM.

Consider `Cn1c(CN2CCC(c3ccc(OC(F)F)cc3Cl)CC2)nc2ncccc21` [compound 266], for which the EC50 worked out at 54.9 nM.

For `Cn1c(CN2CCC(c3ccc(C(F)(F)F)cc3Cl)CC2)nc2ncccc21` [compound 272], the EC50 was found to be 24.1 nM.
